Data as given in US20260048046A1, “METHOD FOR IMPROVING GROWTH PERFORMANCE IN FEEDLOT CATTLE” (Elanco US Inc., priority 2022, published 2026).

Tested on: beef feedlot cattle
Experiment: 56-d study: abnormal health observations and removals
Format: in vivo
Procedure: This example describes a randomized complete block study that evaluated LUB dose (0, 1.5, 3.5, and 5.5 mg kg^−1 dry matter) during the last 56 d of the feeding period on live weight, carcass weight, and associated ratios in beef feedlot cattle. Carcass characteristics, mobility, and health were also evaluated. All cattle received monensin and tylosin throughout the study.
A randomized complete block design was used to evaluate the effects of LUB on calculated growth performance of 2,880 British and Continental European crossbred steers typical for U.S. feedlots. Bos indicus breeding was limited to less than ⅛. The study evaluated four
LUB doses: 0 (control, CON), 1.5, 3.5, and 5.5 mg·kg^−1 DM. There were 12 blocks, each block containing four replicate pens that started LUB feeding on the same date. Steers were randomized within each block of four pens with 60 steers per pen, resulting in a total of 720 steers enrolled in each treatment. LUB feeding started on Jun. 24, 2018, Jul. 1, 2018, and Jul. 15, 2018, four blocks on each date.
During the approximately 10 to 15 d acclimation phase and the entire treatment phase until cattle were loaded for slaughter, all animals were observed by trained caretakers at least once daily, but health issues were only noted by exception. All abnormalities were recorded even if considered common for feedlot cattle. Abnormal health observations were observations that the observer considered as 1) typical for beef cattle at that age, or 2) not causing undue pain or distress to the animal, and/or, 3) not impeding the animal's growth at the time the observation was made. Animals with abnormal health observations were allowed to remain in the study. Animals were allowed to receive concomitant therapies (e.g., antibiotic treatment for respiratory disease and treatment for bloat). Health observations requiring an animal to be classified as “removed” were abnormalities that the observer considered as 1) resulting in pain or distress to the animal, or 2) likely to result in further deterioration of the animal's health, and/or 3) impairing the animal's ability to access food or water at the time of the observation. Animals removed from the study during the treatment or withdrawal phase were penned separately in the research feedlot and tracked through slaughter to assure accountability of all cattle on study per food use authorization or were euthanized and necropsied. Decisions to remove an animal from treatment phase were made by the Investigator or Manager. Animals that were found dead at the time of the observation were removed from the pen as soon as practical and necropsied (if possible).
The label claim variable of cumulative NH3 gas emissions over the treatment period normalized by final BW (with d −59 BW as a covariate) for the period and HCW (g of gas kg^−1 of BW or g of gas kg^−1 HCW) was determined by utilizing NH3 gas emissions equations developed from the LUB clinical effectiveness study (FDA-FOI, 2018) and validated using animals of similar BW as described by Brown et al. (2019). The pen was the experimental unit for each outcome. Differences were deemed significant using a two-sided test at Ptrt≤0.05, however, a less stringent significance threshold of Ptrt≤0.10 was used for abnormal health observations. Fixed effect of treatment and random effects of time replicate and block within time replicate were included in the model. Discrete variables were analyzed using a generalized linear mixed model, Proc GLIMMIX SAS version 9.4 unless there were convergence problems due to sparseness of data. A binomial distribution was assumed and a logit link used in the analysis. Contrasts were constructed between the CON group and each non-CON dosage group, and differences were deemed significant at Pdose≤0.05. […]

[1] = Lubabegron 1.5 mg·kg^−1 DM, 56 d, 720 hd per treatment
[2] = Lubabegron 3.5 mg·kg^−1 DM, 56 d, 720 hd per treatment
[3] = Lubabegron 5.5 mg·kg^−1 DM, 56 d, 720 hd per treatment

CC(C)(Cc1ccc(Oc2ncccc2C#N)cc1)NC[C@H](O)COc1ccccc1-c1cccs1 [LUB, 2-{4-[2-({(2S)-2-Hydroxy-3-[2-(2-thienyl)phenoxy]propyl}amino)-2-methylpropyl]phenoxy}nicotinonitrile]
Abnormal health observations and animal removals, between-treatment differences (CON, 1.5, 3.5, 5.5 mg·kg^−1, 56 d, Ptrt>0.10): No significant (Ptrt>0.10) between-treatment differences | Bloat (gastrointestinal), rate [1]: 0.1% | Bloat (gastrointestinal), total number [1]: 1 | Dead (animals found dead), rate [1]: 0.3% | Dead (animals found dead), total number [1]: 2 | Lameness (musculoskeletal), rate [1]: 1.3% | Lameness (musculoskeletal), total number [1]: 9 | Removals (found dead and removed during treatment phase), rate [1]: 2.5% | Removals (found dead and removed during treatment phase), total number [1]: 18 | Bloat (gastrointestinal), rate [2]: 0.6% | Bloat (gastrointestinal), total number [2]: 4 | Dead (animals found dead), rate [2]: 0.7% | Dead (animals found dead), total number [2]: 5 | Lameness (musculoskeletal), rate [2]: 0.4% | Lameness (musculoskeletal), total number [2]: 3 | Removals (found dead and removed during treatment phase), rate [2]: 1.5% | Removals (found dead and removed during treatment phase), total number [2]: 11 | Bloat (gastrointestinal), rate [3]: 0.3% | Bloat (gastrointestinal), total number [3]: 2 | Lameness (musculoskeletal), rate [3]: 1.0% | Lameness (musculoskeletal), total number [3]: 7 | Pneumonia (respiratory), rate [3]: 0.3% | Pneumonia (respiratory), total number [3]: 2 | Removals (found dead and removed during treatment phase), rate [3]: 1.8% | Removals (found dead and removed during treatment phase), total number [3]: 13
